Test results from patent US12365901B2, “Application of mechanical-force sensitive macrophage subset in pancreatic cancer diagnosis or prognosis evaluation” (priority 2023, dated 2025).

How the values were obtained:
THP-1 cells = experiment: Flow cytometry of CD11b and CD68 after THP-1 cells are differentiated into macrophages; type: cell-based, human; settings: flow cytometry after PMA-induced differentiation
Procedure: (§1) 1) Transfection of THP-1 cells: the cells were inoculated into a 24-well plate at a density of 2.5×10^5/ well. A transfection reagent was prepared: A: 50 μL of low serum culture medium (Opti-MEM I Reduced Serum Medium, Cat. No. 31985070, Gibco) was added with 3 μL of transfection reagent (Lipofectamine™ RNAiMAX Transfection Reagent, Cat. No. 13778075, Invitrogen). B: 50 μL of low serum culture medium (Opti-MEM I Reduced Serum Medium, Cat. No. 31985070, Gibco) was added with 1 μL of siRNA (RIBO BIO). A and B were mixed and incubated at room temperature for 5 minutes, and 50 μL of the mixture was added with the THP-1 cells to culture overnight.
(§2) 2) A cell suspension was collected and centrifuged at 1000 rpm and room temperature for 5 minutes, a supernatant was removed, and PMA (50 ng/ml, Cat. No. p1585, Sigma) was added to induce for 24 hours.
4) The cells were collected, centrifuged, washed with PBS once, then added with 1 μL of Fixable Viability Stain 780 (Cat No. 565388, BD), mixed evenly, incubated on ice for 20 minutes, and washed with an FACS Buffer (2% BSA in PBS) twice. The solution was added with 2.5 μL of FC blocking antibody (Cat. No. 422302, Biolegend), blocked on ice for 20 minutes, then added with 2.5 μL of CD14-BV421 (Cat. No. 563743, BD) antibody and 1 μL of CD11b-PE (Cat. No. 101207, Biolegend) antibody, incubated on ice in the dark for 20 minutes, and then washed with an FACS Buffer twice. The solution was added with 100 μL of cell fixing solution (Cat. No. 00-8222-49, eBioscience), incubated at room temperature in the dark for 40 minutes, and then washed with a prepared membrane permeation solution (Cat. No. 00-8333-56, eBioscience) twice. The cells were resuspended to 100 μL of membrane permeation solution, added with 1.5 μL of CD68-AF647 (Cat. No. 333820, Biolegend), incubated on ice in the dark for 20 minutes, then washed with the membrane permeation solution twice, resuspended to 100 μL of FACS buffer, and detected on a computer.

THP-1 macrophages = experiment: Elastic modulus of siRNA-transfected, PMA-induced THP-1 cells measured by nanoindenter; type: cell-based, human; settings: compared with control group si-NC; PMA 50 ng/ml for 24 hours
Procedure: as §1, §2
3) The cell culture medium was replaced by PBS, an instrument was calibrated by using a confocal dish, and then an elastic modulus of the cells was measured.

| Substance | fluorescence intensity of CD11b of the THP-1 cells (THP-1 cells) | fluorescence intensity of CD68 of the THP-1 cells (THP-1 cells) | elastic modulus of the THP-1 macrophages (THP-1 macrophages) |
| --- | --- | --- | --- |
| si-Ptk2b_3: siRNA targeting human Ptk2b gene: CACATGAAGTCCGATGAGA (SEQID NO. 3) (listed as DNA, chemistry not given here) | significantly inhibit | significantly inhibit | significantly reduce |
| si-Ptk2b_2: siRNA targeting human Ptk2b gene: GGACGAGGACTATTACAAA (SEQID NO. 2) (listed as DNA, chemistry not given here) | significantly inhibit | significantly inhibit | significantly reduce |
| si-Ptk2b_1: siRNA targeting human Ptk2b gene: GGATCATCATGGAATTGTA (SEQID NO. 1) (listed as DNA, chemistry not given here) | significantly inhibit | significantly inhibit | significantly reduce |
